“Also recorded” adds a separate entry of the source.
What was measured:
primary CLL cells [1] = test: CellTiter-Glo ATP-based luminescent assay, intracellular ATP depletion; type: cell-based, human; settings: for intracellular ATP depletion (luminescence), dose-response: gradient of concentrations, 1 to 20 μM
Experimental: Primary CLL cells were treated with 3 uM isoproterenol (IC50 determined with Cell-titer Glo® assay) for 24 hr. Cell death markers for apoptosis (cleaved PARP, cleaved caspase 3 and caspase 9) and autophagy (accumulation of LC3 II) were assessed by western blotting. The […] phosphodiesterase inhibitor, IBMX, was used as a positive control because it induces apoptosis in CLL B cells.
CellTiter-Glo® Luminescent Cell Viability Assay is a homogeneous method for determining the number of viable cells in culture based on quantitation of the ATP present, an indicator of metabolically active cells.
ATP depletion in CLL cells was measured by the ATP-based luminescent assay CellTiter-Glo®.
Isoproterenol-induced intercellular ATP depletion was determined by the ATP-based luminescent assay CellTiter-Glo®. The efficiency of isoproterenol in depleting intracellular ATP is represented by the dose response curves shown by FIGS. 3B, 3D and 3F respectively.

primary CLL cells [2] = test: Western blotting / immunoblotting of apoptosis markers (cleaved PARP, caspases); type: cell-based, human; settings: for cleaved PARP (apoptosis marker), western blot: 3 uM isoproterenol, 24 hr, IBMX positive control; for apoptosis by immunoblotting with apoptotic markers: 30 uM isoproterenol 12 hrs pre-treatment, 10 uM fludarabine 48 hr
Experimental: Cell death markers for apoptosis (cleaved PARP, cleaved caspase 3 and caspase 9) and autophagy (accumulation of LC3 II) were assessed by western blotting.
[…] Cells were then harvested and examined by immunoblotting with apoptotic markers Cleaved PARP and caspace 9.
Control primary CLL cells ([…]), 10 uM fludarabine (Flud), a combination of both drugs at these concentrations (Flud/Iso), 0.5 uM doxorubicin (Dodo), a combination of 0.5 uM doxorubicin and 30 uM isoproterenol (Dodo/Iso), 0.5 uM mitoxantrone, and a combination of 0.5 uM mitoxantrone and 30 uM isoproterenol and incubated. Cells were than harvested and examined by immunoblotting with the indicated apoptotic markers.

primary CLL cells [3] = type: cell-based
Experimental: (§1) To assess viability of the treated cells, cells were stained by propidium iodide and analyzed by flow cytometry.
(§2) The PI/flow cytometry assay assesses cell viability using propidium iodide (PI) which is a membrane impermanent dye that is generally excluded from viable cells. It binds to double stranded DNA by intercalating between base pairs.
Primary CLL cells were isolated from three CLL patients and were exposed 10 uM fludarabine (a purine analog) alone or in combination with 30 uM isoproterenol to assess the effects of the drug(s) on cytotoxicity and growth. Induced cell death was assessed by PI staining and flow cytometry.
After 24 hours treatment, the treated cells were stained with the cell-death marker, propidium iodide and analyzed with flow-cytometry to determine % induced cell death.

normal PBMCs = test: Induced cell death by propidium iodide staining and flow cytometry; type: cell-based, human; settings: 3 uM
Experimental: as §1, §2
Cells from CLL, AML, and from normal donors were treated with 30 μM isoproterenol, 10 μM fludarabine, or a mixture of both drugs at these concentrations as shown by FIGS. 3A, 3C and 3E respectively.

CLL primary cells = test: MTT (ATP independent) cell viability assay; type: cell-based, human; settings: gradient of concentrations
From the text: The two assays gave completely different dose-response curves.

primary CLL cells [4] = test: Isoproterenol-induced intracellular cAMP accumulation; type: cell-based, human; settings: IBMX pre-treatment one hour, then 10 uM for 24 hr; CLL cells compared to normal cells
Experimental: Isoproterenol-induced intracellular cAMP accumulation in normal PBMCs and primary CLL cells was assessed. Cell samples were pre-treated for one hour with phosphodiesterase inhibitor (IBMX) and then with 10 uM isoproterenol for 24 hr.

p-CREB = test: Human phosphokinase array; type: cell-based; settings: 20 μM for 24 hours, compared to untreated
Experimental: Samples of primary CLL cells were treated in vitro with 20 μM isoproterenol for 24 hours in a human phosphokinase array. In the array each kinase was spotted in duplicate with hybridization signals at the corners serving as controls. Relative levels of protein phosphorylation (normalized intensity for each antibody) were calculated for each untreated and treated sample.

Compound | intracellular ATP depletion (primary CLL cells [1]; 1 μM) | depletion of intracellular ATP (primary CLL cells [1]; 30 μM for 12 hours) | sensitivity to isoproterenol induced intracellular ATP depletion (primary CLL cells [1]; CLL primary cells compared with other leukemia subtypes and normal PBMCs) | IC50 (primary CLL cells [1]; Homo sapiens, CLL cell, primary CLL cells, read-out: IC50 determined with Cell-titer Glo assay) [nM] | intracellular ATP depletion (luminescence), dose-response (primary CLL cells [1]) | intracellular ATP depletion (luminescence), dose-response (primary CLL cells [1]; listed as Iso) | sensitivity to isoproterenol (ATP depletion) (primary CLL cells [1]; primary CLL cells from a CLL patient at early stage) | cleaved PARP (apoptosis marker), western blot (primary CLL cells [2]) | apoptosis by immunoblotting with apoptotic markers (primary CLL cells [2]) | cell death, PI staining / flow cytometry (primary CLL cells [3]; 3 uM) | cell death, ATP-independent assay (solid line FIG. 1C) (primary CLL cells [3]; 1 to 20 μM) | cell death, PI staining / flow cytometry (normal PBMCs) | cell death by MTT assay (CLL primary cells) | intracellular cAMP accumulation (primary CLL cells [4]) | phosphorylation of p-CREB (p-CREB) | p53 expression (P53) | apoptosis, cleaved PARP (relative pixel density) (primary CLL cells [2]; 30 uM isoproterenol, 10 uM fludarabine)
CC(C)NCC(O)c1ccc(O)c(O)c1 (stereo not shown) [isoproterenol, Isoproterenol] | weak intracellular ATP depletion | more than 80% | highest sensitivity | 3000 | increased intracellular ATP depletion; also recorded: dose-dependent decrease in luminescence | induces intracellular ATP depletion | lesser sensitivity | no cleaved PARP | Apoptosis was not observed | did not induce any significant cell death | did not induce cell death | did not induce any significant cell death | doesn't induce cell death | significantly higher accumulation of cAMP | only significantly up-regulated kinase | doesn't induce any increase in p53 expression | –
Nc1nc(F)nc2c1ncn2[C@@H]1O[C@H](CO)[C@@H](O)[C@@H]1O [fludarabine, Fludarabine] | – | – | – | – | – | – | – | – | Apoptosis was observed | – | – | – | – | – | – | – | induced apoptosis
CC(C)Cn1c(=O)n(C)c(=O)c2[nH]cnc21 [IBMX] | – | – | – | – | – | – | – | presence of cleaved PARP | – | – | – | – | – | – | – | – | –

Reference: patent US11052101B2, “Methods for treating cancer using purine analogs by depleting intracellular ATP” (National Guard Health Affairs, priority 2019, dated 2021)
